Assay results taken from publication PMC5748833, “Synthesis and Biological Evaluation of Novel Hybrid Molecules Containing Purine, Coumarin and Isoxazoline or Isoxazole Moieties” (The Open Medicinal Chemistry Journal, 2017).

Key:
[1] = Competition of the tested compounds with DMSO for hydroxyl radicals; conditions: 100 μM compound, Fe3+/ascorbic acid, 30 min, 37°C
Description: 2.2.2.2 Competition of the tested compounds with DMSO for hydroxyl radicals
The hydroxyl radicals generated by the Fe ^3+ /ascorbic acid system, were detected according to Nash, by the determination of formaldehyde produced from the oxidation of DMSO. The reaction mixture contained EDTA (0.1 mM), Fe ^3+ (167 μM), DMSO (33 mM) in phosphate buffer (50 mM, pH 7.4), the tested compounds (concentration 0.1mM) and ascorbic acid (10 mM). After 30 min of incubation (37°C) the reaction was stopped with CCl3COOH (17% w/v) (Table 5). Trolox was used as a standard.
Superoxide (O2^-.) anion and hydroxyl radical (^.OH) are free radical species of potential importance. In the acidic conditions of ischemic brain, O2^-. is probably protonated to give HO2^-. species. Iron released from damaged brain cells is more likely to be readily available to catalyze the generation of OH radicals. Among the ROS, the hydroxyl (^•OH) free radical is possibly the most toxic, as it reacts with a number of biological important molecules. Polyunsaturated fatty acids are found in high concentrations in the CNS, and are particularly vulnerable by free radicals. Thus, we tried to test the ability of our compounds to scavenge hydroxyl radicals. […] All the derivatives of series 13 (except of 13i) present high antioxidant activity (80-100%) which is not able to be correlated with any specific structural characteristic since all contain a coumarin, a purine and an isoxazolyl moiery. […] It seems that the overall molar configuration influences the response. However, antioxidants with hydrophilic or lipophilic character are both needed to act as radical scavengers in the aqueous phase or as chain-breaking antioxidants in biological membranes.

soybean lipoxygenase = molecular target: T1, soybean lipoxygenase (Glycine max, UniProt P08170); test: Soybean lipoxygenase inhibition in vitro; assay type: biochemical; conditions: for IC50: read-out: LOX IC50 μΜ
T1 construct: purchased Sigma Chemical, Co. (St. Louis, MO, USA)
T1 sequence (P08170 1-839): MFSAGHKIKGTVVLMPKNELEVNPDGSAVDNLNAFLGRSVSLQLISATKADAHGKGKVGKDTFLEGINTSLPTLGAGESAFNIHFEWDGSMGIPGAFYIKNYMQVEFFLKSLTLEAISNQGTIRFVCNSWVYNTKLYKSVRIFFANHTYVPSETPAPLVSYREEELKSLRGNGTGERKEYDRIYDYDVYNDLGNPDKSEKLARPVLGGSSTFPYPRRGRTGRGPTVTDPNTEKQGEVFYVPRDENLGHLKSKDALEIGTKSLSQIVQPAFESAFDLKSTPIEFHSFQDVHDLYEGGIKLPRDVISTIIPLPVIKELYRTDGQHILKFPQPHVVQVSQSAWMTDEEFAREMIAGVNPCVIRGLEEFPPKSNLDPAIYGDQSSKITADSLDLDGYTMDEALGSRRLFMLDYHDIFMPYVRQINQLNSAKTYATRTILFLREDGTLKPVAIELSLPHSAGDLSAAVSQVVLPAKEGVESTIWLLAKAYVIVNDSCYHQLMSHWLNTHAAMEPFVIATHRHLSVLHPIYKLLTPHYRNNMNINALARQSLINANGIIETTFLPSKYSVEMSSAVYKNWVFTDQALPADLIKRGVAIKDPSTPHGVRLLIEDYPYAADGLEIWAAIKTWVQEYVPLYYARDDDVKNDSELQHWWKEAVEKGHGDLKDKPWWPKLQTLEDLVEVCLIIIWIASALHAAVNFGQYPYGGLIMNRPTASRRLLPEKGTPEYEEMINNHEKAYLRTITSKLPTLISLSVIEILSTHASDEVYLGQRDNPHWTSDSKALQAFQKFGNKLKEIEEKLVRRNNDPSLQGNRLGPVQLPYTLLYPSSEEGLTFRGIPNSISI
Description: 2.2.2.4 Soybean lipoxygenase inhibition study in vitro [14]
In vitro study was evaluated as reported previously. The tested compounds dissolved in ethanol were incubated at room temperature with sodium linoleate (0.1 mM) and 0.2 ml of enzyme solution (1/9 x10^-4 w/v in saline). […] Several concentrations were used for the determination of IC50 values (Table 5).
LO is the key enzyme in leukotriene biosynthesis. Leukotrienes derived from the biotransformation of arachidonic acid catalyzed by 5-lipoxygenase (5-LO), are important inflammatory mediators implicated in several diseases. LOs play a role in membrane lipid peroxidation by forming hydroperoxides in the lipid bilayer. […] Most of the LO inhibitors are antioxidants or free radical scavengers, since lipoxygenation occurs via a carbon-centered radical. The evaluation of the novel coumarin hybrids against soybean lipoxygenase LO was accomplished by the UV-based enzyme assay.

[2] = Reducing activity of the stable radical DPPH; conditions: 100 μM compound, after 20 min
Description: 2.2.2.1 Determination of the reducing activity of the stable radical 1, 1-diphenyl-picrylhydrazyl (DPPH)
To a solution of DPPH (100μM) in absolute ethanol an equal volume of the compounds dissolved in ethanol was added. As control solution ethanol was used. The concentration of the solutions of the compounds was 100μM. After 20 and 60 min at room temperature the absorbance was recorded at 517 nm (Table 5). NDGA was used as a standard.
The compounds were studied for their antioxidant activity by the use of the stable 2,2-diphenyl-1-picrylhydrazyl radical (DPPH) at concentration 0.1mM after 20 min. […] This purple colour generally disappears in the presence of an antioxidant. The reduction of absorbance is a measure of the free DPPH due to the action of the antioxidant. The antioxidant activity was expressed as the RA% (Reducing Activity). […] Within the group of derivatives 4 the presence of the morpholinyl or piperidinyl rings at position A as well as the carbonyl group at position B, hinder the interaction of the compounds to the free stable radical DPPH.

[3] = Inhibition of linoleic acid lipid peroxidation (AAPH); conditions: 100 μM compound, 37°C
Description: 2.2.2.3 Inhibition of linoleic acid lipid peroxidation
Production of conjugated diene hydroperoxide by oxidation of linoleic acid sodium salt in an aqueous solution was monitored at 234 nm. 2,2’-Azobis(2-amidinopropane) dihydrochloride (AAPH) was used as a free radical initiator. 10 μl of the 16 mM linoleic acid sodium salt solution was added to the UV cuvette containing 0.93 ml of 0.05 M phosphate buffer, pH 7.4 prethermostated at 37°C. The oxidation reaction was initiated at 37°C under air by the addition of 50 μl of 40 mM AAPH solution. Oxidation was carried out in the presence of 10 μl of the examined compounds (stock solution in DMSO). In the assay without antioxidant, lipid oxidation was measured in the presence of the same level of DMSO. The rate of oxidation at 37°C was monitored by recording the increase in absorption at 234 nm caused by conjugated diene hydroperoxides (Table 5). Trolox was used as a standard.
Anti-lipid peroxidation activity. The water-soluble azo compound AAPH has been extensively used as a clean and controllable source of thermally produced alkyl peroxyl free radicals, through spontaneous thermal decomposition. […] In the AAPH assay, the highly reactive alkylperoxyl radicals are intercepted mainly by a hydrogen atom transfer (HAT) from the antioxidant.

Structure (SMILES) | ∙ΟΗ % @ 100μΜ (hydroxyl radical scavenging, percent inhibition of formaldehyde production) ([1]; 100 µM) | IC50 (soybean lipoxygenase) [µM] | RA% @ 100μΜ (reducing activity, DPPH) [2] | LP % @ 100μΜ (inhibition of lipid peroxidation) [3] | melting point [°C] | %LOX @ 100μΜ (soybean lipoxygenase; 100 μM compound) | ∙ΟΗ % @ 100μΜ (hydroxyl radical scavenging, percent inhibition of formaldehyde production) [1] [%] | inhibition at 100 µM (soybean lipoxygenase; read-out: %LOX @ 100μΜ) [%]
O=C(Oc1ccc2oc(=O)ccc2c1)C1CC(Cn2cnc3c(N4CCCCC4)ncnc32)=NO1 (stereo not shown) [4n] | did not present any activity and no | 35 | 17% | no | 175 to 177 | – | – | –
Cc1cc(=O)oc2cc(OCC3CC(Cn4cnc5c(N6CCCCC6)ncnc54)=NO3)ccc12 (stereo not shown) [4c] | did not present any activity and no | – | 17% | 65% | 186 to 187 | no | – | –
O=c1ccc2ccc(OCc3cc(Cn4cnc5c(N6CCOCC6)ncnc54)on3)cc2o1 [15b] | – | 100 | no | 52% | 185 to 187 | – | 48 | –
O=c1ccc2ccc(OCC3=NOC(n4cnc5c(N6CCOCC6)ncnc54)C3)cc2o1 (stereo not shown) [18b] | did not present any activity and no | 100 | 1% | 38% | 205 to 206 | – | – | –
Cc1cc(=O)oc2cc(OCC3=NOC(Cn4cnc5c(N6CCCCC6)ncnc54)C3)ccc12 (stereo not shown) [11d] | did not present any activity and no | 48 | 13% | 43% | 144 to 145 | – | – | –
Cc1cc(=O)oc2cc(OCCC3CC(Cn4cnc5c(N6CCCC6)ncnc54)=NO3)ccc12 (stereo not shown) [4j] | did not present any activity and no | – | 44% | 32% | 178 to 180 | – | – | 37
O=c1ccc2ccc(OCC3=NOC(n4cnc5c(N6CCCCC6)ncnc54)C3)cc2o1 (stereo not shown) [18a, 7-{[5-(6-piperidin-1-yl-9H-purin-9-yl)-4,5-dihydroisoxazol-3-yl]methoxy}-2H-chromen-2-one] | did not present any activity and no | 90 | 4% | No | 197 to 199 | – | – | –
O=C(Oc1ccc2oc(=O)ccc2c1)C1CC(Cn2cnc3c(N4CCOCC4)ncnc32)=NO1 (stereo not shown) [4o] | did not present any activity and no | 60 | 3% | 40% | 184 to 185 | – | – | –
